Data published in patent US12582720B2, “Compound for preventing or treating lipid metabolism-related diseases” (Fudan University, priority 2020, dated 2026).

Experiments:
[1] = system: lipid droplets in 3T3-L1 fat precursor cell differentiated fat cells; assay: Lipid droplets in 3T3-L1 fat precursor cell differentiated fat cells; assay type: cell-based, mouse; conditions: 3T3-L1 differentiated fat cells, 24 h
[2] = system: autophagosome-lipid droplet colocalization in MEF cells; assay: Colocalization of autophagosome and lipid droplets in mCherry-LC3B transfected MEF cells; assay type: cell-based, mouse; conditions: 5 μM, 3 h, compared to DMSO control
Method: (1) In MEF cells, mCherry-LC3B was expressed by cDNA plasmid transfection.
(2) OA was added to the culture medium 30 hours after transfection to induce lipid droplets.
(3) Compounds were added to treat cells 6 hours after induction.
(4) 3 hours after compounds addition, cells were fixed and BODIPY stained.
(5) The coverslips laid in the multi-well plates were removed, and imaged with the Zeiss 880 confocal microscope after mounted to observe the aggregation of LC3 puncta around the lipid droplets.
In MEF cells, mCherry-LC3B was expressed by cDNA plasmid transfection. At 30th hour of overexpression, OA was added into cells for lipid droplet induction. 6 hours later, the compound was added for 3 hours' treatment, and then cells were subjected to immunostaining. […] Lipid droplets (green) were stained with BODIPY stain, and nucleus were indicated with DAPI stain. […] In FIG. 24, the colocalized autophagosome-lipid droplet was marked with circles.

[3] = system: lipid droplets in LC3B knockout HEK293T cells; assay: Lipid droplets in LC3B knockout HEK293T cells; assay type: cell-based, human; conditions: 5 μM
Method: The effect of conjugated compounds (Compound 1A, Compound 2A, Compound 3A or Compound 4A at a concentration of 5 μM) on lipid droplets in LC3B knockout HEK293T cells was tested by a method similar to Example 2.

db/db mice = assay: Effect of the compound on db/db mouse; assay type: in vivo
Description: Experimental animals: nineteen-week-old db/db male mice (C57BL/6J-Lepr^db/Lepr^db) were obtained from Shanghai Model Organisms Co., Ltd., and acclimatized for at least 1 week before experiments. The mice had ad libitum access to standard chow and water.
Normal control: The C57BL/6 male mice fed on standard irradiated chow diet (Shuyishuer Inc. cat. no. D12450J) from Changzhou Shuyishuer Biotechnology Co., Ltd. (Shuyishuer Inc.) were used as the normal control.
(§1) Mice were randomly divided into 7 groups, wherein 8 mice in each group, and the mice in each group were subjected to intraperitoneal injection to administer: (1) only vehicle (no DMSO) group: 0% DMSO+39% PEG300 (Selleck, cat. no. S6704)+5% Tween-80 (Selleck, cat. no. S6702)+56% distilled water, (2) DMSO group: 1% DMSO+39% PEG300+5% Tween-80+55% H2O (DMSO vehicle), (3) C3 group: Compound 3A was in DMSO vehicle, (4) C4 group: Compound 4A in DMSO vehicle, (5) SIII group: Sudan III DMSO vehicle, (6) GW5074 group: Compound A1 in DMSO vehicle, (7) DP group: Compound A5 in DMSO vehicle. For groups (3)-(7), the compound (30 mg/kg, administration volume 150 μL) was administered through intraperitoneally injection for consecutive 2 weeks, and once a day. The food and water intake were measured with an analytical electronic balance.
Bodyweight was weighed every day.
If time permitted, tail vein blood (30-50 μL) was collected every 1-3 days.
(§2) 24 hours after the time point of the last injection, end point maxillary surface blood sampling was performed on each mouse. All mice were Euthanized by cervical dislocation, and then tissue sample (e.g., liver samples) were obtained and stored in Eppendorf tubes at −80° C. for assay.
(§3) 12 days after initiation of administration, each mouse was scanned by a minispec nuclear magnetic resonance (NMR) instrument (Bruker LF50 II “Minispec” body composition analyzer, Bruker Optics) that was designed for experimental animals, and based on the measurement of solid and liquid parts of the samples, the body fat and lean body weight were determined by this device.
(§4) Serum: Tail vein blood samples (30-50 μL) were left to coagulate in […] blood collection tubes (Jiangsu Kangjian Medical Products Co., Ltd., model KJ002) at room temperature without interference, and then centrifuged at 2,000×g for 10 minutes at 4° C. to remove the clot. Supernatant was collected to obtain the serum.
(§5) Liver: Liver samples were obtained as described in (2). 100 mg of liver tissue was homogenized in 0.9 mL of absolute alcohol under ice-cold conditions, and then centrifuged (2,500 r.p.m/min, 10 min). Supernatant was collected, and then stored at −80° C.
(§6) The kits were used according to the instruction from manufacturer (TAG: TG kit, cat. no. A110-1-1; TC: T-CHO kit, cat. no. A111-1. FFA: NEFA kit, cat. No. A042-2-1; they were all from Nanjing Jiancheng Bioengineering Institute). TAG, TC and FFA levels in serum and liver samples were determined.
According to the lipidomic method as described above, the contents of liver total lipid, glycerolipid, sterol lipid, neutral sphingolipid and polar lipid were analyzed. The log 2-fold change (log2 FC) and statistical significance (p-value) relative to the DMSO group were calculated.

NASH mice = assay: Effect of the compound on NASH mouse model (CDAHFD); assay type: in vivo
Method: 15-micrometer cryosections were obtained from the liver (see “BODIPY staining of tissues” and processed for visualization of fibrosis by picro-sirius red staining as described in the literature (Sookoian S et al., Fatty Liver Disease Progresses into Severe NASH when Physiological Mechanisms of Tissue Homeostasis Collapse. Ann Hepatol 2018; 17:182-186.). The liver cryosections were washed with 1×PBS and then incubated at room temperature for 1 hour with the solution containing 0.1% vol/vol Direct Red 80 Direct Red 80 (for staining collagen in red as an indicator for liver fibrosis) and 0.04% Fast Green (Sigma-Aldrich, cat. no. F7258, for general protein staining as a background) in saturated aqueous solution of picric acid (Sigma., cat. no. P6744-1GA). The samples were imaged by using an Olympus inverted fluorescence microscope IX73, and the histological fibrosis images were analyzed by the imageJ software.
Experimental animals: ten-week-old C57BL/6 male mice were obtained from Hangzhou Ziyuan Inc. The mice had ad libitum access to water and a choline-deficient, L-amino acid-defined, high-fat diet (CDAHFD) containing 60% kcal fat obtained from Changzhou Shuyishuer Inc. for twelve weeks (including the two-week compound-injection period) to generate the non-alcoholic steatohepatitis (NASH) models.
as §1, §2, §3, §4, §5, §6

LC3B = LC3B (Homo sapiens, UniProt Q9GZQ8); assay: MST detection of affinity activity with LC3B; assay type: binding; design: His8 (with TEV site) (N); made in house; host or cells: Escherichia coli BL21(DE3)pLysS; conditions: MST; read-out: Kd (μM), equilibrium dissociation constant between the conjugated compound and LC3B
Method: The recombinant GST-LC3B proteins were prepared and purified, dialyzed into 1×PBS, and then labelled with the red fluorophore with the protein labeling kit RED-NHS (Nanotemper, cat. no. L001).
The MST experiments were performed using the Monolith NT.115 instrument (NanoTemper Technologies). The reaction buffer contains 20 mM HEPES, pH 7.4, 150 mM NaCl, and the protein concentration was 500 nM. The MST data were collected under 40% infrared laser power and 20% light-emitting diode power. The data were analyzed by Nanotemper software.

## O=c1cc(-c2ccccc2)c2c(OCCCCCCCCCCOc3ccc4ccccc4c3/N=N/c3ccc(/N=N/c4ccccc4)cc3)cc(O)cc2o1 [Compound 4A, 7-hydroxy-4-phenyl-5-((10-((1-((E)-(4-((E)-phenyldiazenyl)phenyl)diazenyl)naphthalen-2-yl)oxy)decyl)oxy)-2H-chromen-2-one]
[1]; 5 μM + NH4Cl 5 mM
  effect of the compound on lipid droplets under the treatment of NH4Cl: blocked
[1]; 5 μM
  amount of lipid droplets: could reduce
  size of lipid droplets: could change
[2]
  ratio of colocalization of red and green aggregation point (autophagosome-lipid droplet): significantly increased
[3]
  reduction of lipid droplets induced by conjugated compounds after knockout of LC3B gene: largely blocked
db/db mice
  body weight-normalized food intake: marginally significant increase
db/db mice; 30 mg/kg ip
  FFA levels in serum and liver: significantly reduced
  body weight-normalized food and water intake: no significant reduction
db/db mice; 30 mg/kg ip once a day, within 2 weeks
  weight loss (total body weight): about 15%
db/db mice; 30 mg/kg ip, 12 days, vs DMSO group
  ratio of body fat/lean body weight: significantly reduced
db/db mice; 30 mg/kg ip, 14 days
  amount and size of liver lipid droplets (BODIPY493/503): significantly reduced
db/db mice; 30 mg/kg ip, 14 days, vs DMSO group
  liver weight: significantly reduced
db/db mice; 30 mg/kg ip, vs DMSO group
  TAG levels in liver and serum: significantly reduced
  TC levels in liver and serum: significantly reduced
db/db mice; absolute quantitative lipidomics, vs DMSO group
  reduction of liver total lipid concentration (liver lipid level): 41.5±13.9%
db/db mice; lipidomics
  TAG in liver: significantly reduced
  most glycerolipids, sterol lipids and neutral sphingolipids in liver: reduced
  other major neutral lipids, cholesteryl ester (ChE) and diglyceride (DG) in liver: slightly reduced
  polar lipids, e.g., glycerophospholipids in liver: did not reduce
db/db mice; liver lipidomics
  PE and PI: unaffected
  TAG and ChE with different chain carbon numbers or saturated bond numbers: all reduced
NASH mice; 30 mg/kg ip
  liver weight: significantly reduced
  ratio of body fat/lean body weight: significantly reduced
  serum and liver TAG levels: reduced
  serum and liver TC levels: reduced
NASH mice; 30 mg/kg ip once a day, 2 weeks
  body weight: significantly reduced
NASH mice; 30 mg/kg ip, 14 days
  liver lipid droplets: significantly reduced
NASH mice; 30 mg/kg ip, 14 days, compared with control compound
  degree of interstitial fibrosis in liver tissue (picro-sirius staining): significantly reduced
LC3B
  Kd: 0.39 µM
